From PubChem BioAssay AID2060513 (Molecular Pharmacology Branch, DTP, NCI, 2025)

Tested on: 299254-011-R-J1-PDC complex spheroids viability
Test: Anticancer human tumor 299254-011-R-J1-PDC patient-derived melanoma cell line growth inhibition [GQUAD]
Conditions: for IC50: curve of first compound; for viability, T/C: stronger effect = lower value
Outline: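 Multi-cell-type spheroids of tumor cells with HUVEC and mesenchymal stem cells, treated with drug combinations. Concentrations descend in half-log steps from near clinical Cmax, or from 10 microM where Cmax is unknown; viability read-out.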
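Also: spheroids exposed to the agents for seven days before readout.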
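For viability, T/C in this document: percent viability relative to DMSO vehicle control wells = 100%.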

**Q.** Which IC50 (second compound 0.0316 µM) does the source give for `CC[C@@]1(O)C(=O)OCc2c1cc1n(c2=O)Cc2cc3c(CN(C)C)c(O)ccc3nc2-1` + Cc1[nH]c2ccc(F)cc2c1-c1nc2c3cccnc3c3ncccc3c2[nH]1 here?
**A.** The IC50 was greater than 316 nM.

**Q.** What about the IC50 (second compound 0.1 µM) of the same compound?
**A.** Its IC50 is greater than 316 nM.

**Q.** What about the IC50 (second compound 0.316 µM) of the same compound?
**A.** Its IC50 is greater than 316 nM.

**Q.** And the IC50 (second compound 1 µM)?
**A.** Its IC50 is greater than 316 nM.

**Q.** What about the IC50 (second compound 3.16 µM) of the same compound?
**A.** Its IC50 is greater than 316 nM.

**Q.** What about the IC50 (second compound 10 µM) of the same compound?
**A.** Its IC50 is greater than 316 nM.

**Q.** And the viability, T/C (second compound 0.0316 µM, first compound 0.000999 µM)?
**A.** Its viability, T/C is 119%.

**Q.** What about the viability, T/C (second compound 0.0316 µM, first compound 0.00316 µM) of the same compound?
**A.** The viability, T/C was 92.6%.

**Q.** What about the viability, T/C (second compound 0.0316 µM, first compound 0.00999 µM) of the same compound?
**A.** The viability, T/C was 102%.

**Q.** What about the viability, T/C (second compound 0.0316 µM, first compound 0.0316 µM) of the same compound?
**A.** Its viability, T/C is 85.8%.

**Q.** And the viability, T/C (second compound 0.0316 µM, first compound 0.0999 µM)?
**A.** Its viability, T/C is 86%.

**Q.** And the viability, T/C (second compound 0.0316 µM, first compound 0.316 µM)?
**A.** The viability, T/C was 79.4%.

**Q.** And the viability, T/C (second compound 0.1 µM, first compound 0.000999 µM)?
**A.** Its viability, T/C is 115%.

**Q.** And the viability, T/C (second compound 0.1 µM, first compound 0.00316 µM)?
**A.** Its viability, T/C is 105%.

**Q.** What about the viability, T/C (second compound 0.1 µM, first compound 0.00999 µM) of the same compound?
**A.** Its viability, T/C is 112%.

**Q.** And the viability, T/C (second compound 0.1 µM, first compound 0.0316 µM)?
**A.** Its viability, T/C is 78.2%.

**Q.** And the viability, T/C (second compound 0.1 µM, first compound 0.0999 µM)?
**A.** The viability, T/C was 109%.

**Q.** What about the viability, T/C (second compound 0.1 µM, first compound 0.316 µM) of the same compound?
**A.** Its viability, T/C is 74.8%.

**Q.** What about the viability, T/C (second compound 0.316 µM, first compound 0.000999 µM) of the same compound?
**A.** The viability, T/C was 86.2%.

**Q.** And the viability, T/C (second compound 0.316 µM, first compound 0.00316 µM)?
**A.** Its viability, T/C is 88.3%.

**Q.** And the viability, T/C (second compound 0.316 µM, first compound 0.00999 µM)?
**A.** The viability, T/C was 89.2%.

**Q.** What about the viability, T/C (second compound 0.316 µM, first compound 0.0316 µM) of the same compound?
**A.** Its viability, T/C is 106%.

**Q.** And the viability, T/C (second compound 0.316 µM, first compound 0.0999 µM)?
**A.** Its viability, T/C is 93.2%.

**Q.** And the viability, T/C (second compound 0.316 µM, first compound 0.316 µM)?
**A.** The viability, T/C was 77.7%.

**Q.** And the viability, T/C (second compound 1 µM, first compound 0.000999 µM)?
**A.** The viability, T/C was 97%.

**Q.** What about the viability, T/C (second compound 1 µM, first compound 0.00316 µM) of the same compound?
**A.** Its viability, T/C is 103%.

**Q.** And the viability, T/C (second compound 1 µM, first compound 0.00999 µM)?
**A.** Its viability, T/C is 98.2%.

**Q.** What about the viability, T/C (second compound 1 µM, first compound 0.0316 µM) of the same compound?
**A.** The viability, T/C was 101%.

**Q.** And the viability, T/C (second compound 1 µM, first compound 0.0999 µM)?
**A.** The viability, T/C was 87.2%.

**Q.** And the viability, T/C (second compound 1 µM, first compound 0.316 µM)?
**A.** The viability, T/C was 86.9%.

**Q.** What about the viability, T/C (second compound 3.16 µM, first compound 0.000999 µM) of the same compound?
**A.** The viability, T/C was 87.2%.

**Q.** What about the viability, T/C (second compound 3.16 µM, first compound 0.00316 µM) of the same compound?
**A.** The viability, T/C was 116%.

**Q.** What about the viability, T/C (second compound 3.16 µM, first compound 0.00999 µM) of the same compound?
**A.** The viability, T/C was 95%.

**Q.** And the viability, T/C (second compound 3.16 µM, first compound 0.0316 µM)?
**A.** Its viability, T/C is 111%.

**Q.** And the viability, T/C (second compound 3.16 µM, first compound 0.0999 µM)?
**A.** Its viability, T/C is 96.8%.

**Q.** What about the viability, T/C (second compound 3.16 µM, first compound 0.316 µM) of the same compound?
**A.** Its viability, T/C is 101%.

**Q.** What about the viability, T/C (second compound 10 µM, first compound 0.000999 µM) of the same compound?
**A.** The viability, T/C was 95%.

**Q.** And the viability, T/C (second compound 10 µM, first compound 0.00316 µM)?
**A.** Its viability, T/C is 97.8%.

**Q.** What about the viability, T/C (second compound 10 µM, first compound 0.00999 µM) of the same compound?
**A.** The viability, T/C was 85.1%.

**Q.** And the viability, T/C (second compound 10 µM, first compound 0.0316 µM)?
**A.** The viability, T/C was 85.3%.

**Q.** What about the viability, T/C (second compound 10 µM, first compound 0.0999 µM) of the same compound?
**A.** Its viability, T/C is 116%.

**Q.** What about the viability, T/C (second compound 10 µM, first compound 0.316 µM) of the same compound?
**A.** The viability, T/C was 79.8%.
